Assay results as given in patent publication US10456465B2, “Compositions, kits, and methods for the diagnosis prognosis, monitoring, treatment and modulation of post-transplant lymphoproliferative disorders and hypoxia associated angiogenesis disorders using galectin-1” (Dana-Farber Cancer Institute, Inc., priority 2009, dated 2019).

Experiments:
KS cells = experiment: Gal1 expression and secretion by KS cells (hypoxia/normoxia); assay type: cell-based, human; conditions: for IκB-α degradation: hypoxia; for hypoxia-driven Gal1 expression and secretion: hypoxia (1% O2)
Gal1 = target: T1, Gal1 (Homo sapiens, UniProt P09382); experiment: Binding of 488-Gal1 to HUVEC; conditions: lactose/sucrose 30 mM, swainsonine 3 μM, benzyl-α-GalNAc 2 mM, mAb 0.5 μM
T1 construct: made in house
Procedure: For glycophenotyping, ECs were incubated with biotinylated L-PHA, LEL, SNA, MAL II, PNA and HPA (all from Vector). Recombinant Gal1 was purified as described in Ilarregui et al. (2009) Nat Immunol 10, 981-991. For binding assays, ECs were incubated for 1 h at 4° C. with dyLight 488-labeled galectins in the absence or presence of lactose, sucrose, anti-Gal1 or isotype control mAb or following transfection with GnT5, GCNT1 or scrambled siRNA. Cells were analyzed on a FACSAria (BD Biosciences). For segregation, ECs were treated with Gal1 for 1 h, fixed and incubated for 1 h with anti-human VEGFR2 antibody (55B11; Cell Signaling) as described in Ilarregui et al. (2009) Nat Immunol 10, 981-991. Cells were analyzed on a Nikon laser confocal microscope (Eclipse E800).
DyLight 488-conjugated Gal1 (488-Gal1) was obtained using DyLight labeling kit (Thermo Scientific). Inhibitors of Jak2-STAT3 (AG490; 5 μM), Jnk-SAP (SP600125; 20 μM), p38 (SB202190; 10 μM), HIF-1α (3 μM) and O-glycosylation (benzyl-α-Ga1NAc; 2 mM) were from Calbiochem. Inhibitors of Erk1/2 (U0126; 5 μM), PI(3)K-Akt (Ly294002; 2 μM) and NF-κB (BAY 11-7082; 1 μM), ROS (N-acetyl-cysteine; NAC), N-glycosylation (swainsonine; 3 μM), lactose or sucrose (30 mM) were from Sigma. PNGase F (25 U/μg protein) was from New England Biolabs. Recombinant cytokines including IL-10 (50 ng/ml), IL-17 (5 ng/ml), TGF-β1 (3 ng/ml), IFN-γ (50 ng/ml), VEGF (20 ng/ml), bFGF (10 ng/ml) were from R&D. TNF (20 ng/ml) was from Sigma. Biotinylated lectins, including L-PHA (2 μg/ml), LEL (1 μg/ml), SNA (5 μg/ml), MAL II (10 μg/ml), PNA (10 μg/ml) and HPA (10 μg/ml) were purchased from Vector Labs and incubated in buffer containing 150 mM NaCl, 10 mM HEPES and 1% BSA (Sigma). ON-TARGETplus SMART siRNA pools against GnT5, GCNT1, VEGFR2, NRP-1, VEGF, HIF-1α and scrambled were obtained from Dharmacon. Transfections were performed by Lipofectamine-RNAiMAX (Invitrogen) following manufacturer's directions. Recombinant Gal3 and Gal8 were purified as described in Acosta-Rodriguez et al. (2004) J Immunol 172, 493-502 and Cardenas Delgado et al. (2010) FASEB J [Epub ahead of print].

HUVEC [1] = experiment: HUVEC capillary tube formation on Matrigel; assay type: cell-based, human; conditions: induced by Gal1
Procedure: (§1) HUVEC transfected or not with specific siRNA or pre-incubated with signaling pathway inhibitors were exposed to VEGF or Gal1 with or without lactose, sucrose, 8F4F8G7 mAb or control isotype (IgG1κ) or specific antibodies for VEGFR1 (AP-MAB0702; Abcam), VEGFR2 (AF357; R&D), VEGFR3 (AB89501; Abcam) or VEGF (MAB293; R&D). Cells were processed for proliferation, migration, invasion and tube formation assays. Tumor-associated blood vessels were identified by flow cytometry using Alexa Fluor 647-conjugated anti-CD34 antibody (RAM34; eBioscience).
(§2) The formation of capillary-like tubular structures was assessed in Matrigel-coated plates essentially as described in Albini et al. (2001), Cancer Res 61, 8171-8178. In brief, HUVEC (3×10^4 cells/ml) transfected or not with specific siRNA or pre-incubated with signaling pathway inhibitors were seeded on Matrigel with our without Gal1 (0.1 to 3 μM) or VEGF (20 ng/ml) with or without lactose, sucrose, 8F4F8G7 mAb (0.5 μM) or isotype control (IgG1K) or blocking antibodies specific for VEGFR1 (5 μg/ml), VEGFR2 (2 μg/ml), VEGFR3 (10 μg/ml) or VEGF (10 μg/ml). Cells were incubated at 37° C. for periods ranging from 0 to 24 h and were visualized by phase-contrast microscopy. In another set of experiments, conditioned medium from hypoxic or normoxic KS cells infected or not with a retroviral vector containing Gal1 shRNA was assessed on HUVEC transfected or not with GnT5, GCNT1 or scr siRNA (100 nM). Capillary-like tubular structures were scored by counting the number of tubules (closed areas) per well in a phase-contrast microscope (Nikon E-100). For migration assays, HUVEC (4×10^4/well) transfected or not with specific siRNA were resuspended in M199 medium supplemented with 1% FCS. Cells were placed into the top chamber of the insert while the bottom well was filled with Gal1 or VEGF in the absence or presence of lactose, sucrose, 8F4F8G7 mAb or isotype control. After 24 hours, inserts were stained with crystal violet (Sigma) and analyzed in an inverted microscope. For each filter, 4 images were collected and cells were counted with the ImageJ software v1.34 (NIH).

HUVEC [2] = experiment: HUVEC proliferation ([3H]thymidine incorporation); assay type: cell-based, human; conditions: induced by Gal1
Procedure: as §1
For proliferation assays, HUVEC that were transfected or not with specific siRNA and cultured in complete M199 medium were trypsinized, harvested and seeded in 96-well microtiter plates (1×10^3 cells/well). Cells were pre-incubated for 1 hour at 37° C. with lactose, sucrose or signaling pathway inhibitors and then exposed to Gal1. After 24 hours, cells were incubated for an additional 24 hours in the presence of 0.8 μCi [^3H]-thymidine (NEN Dupont). Cells were then harvested and radioactivity was measured in a 1414 Liquid Scintillation Counter (Perkin Elmer).

mice (Matrigel plugs) = experiment: In vivo vascularization of Matrigel sponges; design: species or system mouse; conditions: lactose 30 mM
Procedure: Invasion assays were performed using the BioCoat Angiogenesis system (BD Biosciences) following manufacturer's recommendations. For assessment of in vivo angiogenesis, growth factor-reduced Matrigel (BD Biosciences) was mixed with Gal1 (0.1 or 3 μM) with or without lactose (30 mM). In another set of experiments, serum-free CM from KS cells infected or not with a retroviral vector expressing Gal1 shRNA and cultured under hypoxic or normoxic conditions, were added to unpolymerized Matrigel and injected subcutaneously into the flanks of either wild-type or Lgals1^−/− (B6) mice or nude mice using a cold syringe. Matrigel embedded with buffer alone was used as negative control and a cocktail containing VEGF (50 ng/ml), heparin (50 U/ml) and TNF (2 ng/ml) was used as positive control. After 6 days, Matrigel plugs were collected by surgery, photographed and weighed. Samples were minced and diluted in water to measure hemoglobin content using the Drabkin reagent kit (Sigma). Each sample was normalized to 100 mg of recovered gel and confronted with a standard curve of mouse blood hemoglobin.

HUVEC [3] = experiment: HUVEC migration (transwell); assay type: cell-based, human; conditions: induced by Gal1
Procedure: as §1, §2

T1 sequence (P09382 whole entry): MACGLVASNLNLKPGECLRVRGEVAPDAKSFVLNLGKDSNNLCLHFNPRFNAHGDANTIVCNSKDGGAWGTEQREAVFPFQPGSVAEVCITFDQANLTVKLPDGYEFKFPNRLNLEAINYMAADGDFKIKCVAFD

Compound: Cc1ccc(S(=O)(=O)/C=C/C#N)cc1 [BAY-117802]
- IκB-α degradation (KS cells; KS cells): prevented
- hypoxia-driven Gal1 expression and secretion (KS cells; KS cells): completely eliminated

Compound: [Cl-].[Cl-].[Co+2] [CoCl2]
- Gal1 expression (KS cells): no effect

Compound: OO [H2O2]
- secretion of Gal1 (KS cells; KS cells, exogenous administration): stimulated

Compound: CC(=O)N[C@@H](CS)C(=O)O [N-acetyl-cysteine]
- IκB-α degradation (KS cells; KS cells): prevented
- hypoxia-driven Gal1 expression and secretion (KS cells; KS cells): strongly inhibited

Compound: CC(=O)N[C@H]1[C@@H](OCc2ccccc2)O[C@H](CO)[C@H](O)[C@@H]1O [benzyl-α-Ga1NAc]
- effect on binding of Gal1 to ECs (Gal1): only partially inhibitory

Compound: OC[C@H]1O[C@@H](O[C@H]2[C@H](O)[C@@H](O)C(O)O[C@@H]2CO)[C@H](O)[C@@H](O)[C@H]1O (some centres unmarked) [lactose, reference compound]
- effect on binding of Gal1 to ECs (Gal1): prevented
- effect on Gal1-induced capillary tube formation (HUVEC [1]): completely prevented
- effect on Gal1-induced EC proliferation (HUVEC [2]): completely prevented
- effect on Gal1-induced vascularization of Matrigel sponges (mice (Matrigel plugs)): specifically inhibited
- effect on Gal1-induced EC migration (HUVEC [3]): completely prevented

Compound: OC[C@H]1O[C@@](CO)(O[C@H]2O[C@H](CO)[C@@H](O)[C@H](O)[C@H]2O)[C@@H](O)[C@@H]1O [sucrose]
- effect on binding of Gal1 to ECs (Gal1): not

Compound: O[C@H]1[C@H]2[C@H](O)CCCN2C[C@H]1O [swainsonine]
- effect on binding of Gal1 to ECs (Gal1): almost completely abrogated
